For nine molecules, TGI results are on record in PubChem BioAssay (NCI).

Structures are written as SMILES.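 Cultured in 96-well plates, cells were exposed to test compound for 48 hours across five concentrations. TGI: total growth inhibition.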 Bounds are passed on as bounds.

Among the test systems are 786-0 renal; A498 renal; A549 NSCLC; BT-549 breast; COLO 205 colon; DU-145 prostate; HOP-62 NSCLC; HS 578T breast; IGROV1 ovarian; K-562 leukemia; OVCAR-4 ovarian; SF-295 CNS; SK-MEL-28 melanoma; SN12C renal; U251 CNS; UACC-257 melanoma; CCRF-CEM leukemia; HL-60(TB) leukemia; RXF 393 renal.
Experiment in all cases: DTP human tumour cell line panel, 48 h

Take `CN(Cc1cnc2nc(N)nc(N)c2n1)c1ccc(C(=O)NCS(=O)(=O)O)cc1`: the concentration for total growth inhibition (TGI) – broadly, the concentration giving total growth inhibition – with 786-0 renal is more than 100 µM; in the assay with A498 renal it was more than 100 µM; in the assay on A549 NSCLC it was more than 100 µM; in the assay on BT-549 breast it was more than 100 µM; in the assay with COLO 205 colon, more than 100 µM; in the assay with DU-145 prostate, 82.7 µM. In addition, the total growth inhibition concentration (TGI) in the assay on HOP-62 NSCLC, in the assay on HS 578T breast, in the assay on IGROV1 ovarian, with K-562 leukemia, in the assay with OVCAR-4 ovarian and in the assay on SF-295 CNS was more than 100 µM in each case. Moreover, the TGI in the assay with SK-MEL-28 melanoma, in the assay on SN12C renal, with U251 CNS and with UACC-257 melanoma was more than 100 µM in each case.

In the case of `O=C(O)c1ccc(-c2nc3ccc(Cl)cc3[nH]2)cc1`, the total growth inhibition concentration (TGI) with 786-0 renal, in the assay with A549 NSCLC, in the assay with BT-549 breast, in the assay on CCRF-CEM leukemia, with COLO 205 colon and with HL-60(TB) leukemia was more than 100 µM in each case. Also, the TGI in the assay with HOP-62 NSCLC, with HS 578T breast, in the assay with IGROV1 ovarian, with K-562 leukemia, in the assay with RXF 393 renal and in the assay on SF-295 CNS was more than 100 µM each time. In addition, the total growth inhibition concentration (TGI) with SN12C renal and in the assay with U251 CNS was more than 100 µM in each case.

For `CCOP(=O)(OCC)C(N)Cc1ccc(OC)c(OC)c1` (centres undefined), the concentration for total growth inhibition (TGI) in the assay with 786-0 renal, in the assay with A498 renal, with A549 NSCLC, with BT-549 breast, with CCRF-CEM leukemia and in the assay on COLO 205 colon was more than 100 µM each time. For the same molecule, the TGI in the assay on DU-145 prostate, in the assay on HL-60(TB) leukemia, in the assay on IGROV1 ovarian, in the assay on K-562 leukemia, in the assay on OVCAR-4 ovarian and with RXF 393 renal was more than 100 µM in each case. Also, the TGI in the assay on SF-295 CNS, in the assay with SK-MEL-28 melanoma, with SN12C renal, in the assay on U251 CNS and with UACC-257 melanoma was more than 100 µM each time.

Consider `CCN(CC)CCCNc1nc(=O)[nH]c(C)c1C(=O)Nc1c2ccccc2nc2ccccc12`, for which the total growth inhibition concentration (TGI) was 32.6 µM in the assay with 786-0 renal; 31.8 µM with A498 renal; 44.2 µM in the assay with A549 NSCLC; more than 100 µM in the assay with CCRF-CEM leukemia; 23.5 µM in the assay on COLO 205 colon; more than 100 µM with DU-145 prostate. The concentration for total growth inhibition (TGI) with HL-60(TB) leukemia was 60.9 µM; in the assay on HOP-62 NSCLC, more than 100 µM; with IGROV1 ovarian it was 72.6 µM; with K-562 leukemia, more than 100 µM; in the assay on OVCAR-4 ovarian, 86.3 µM; in the assay on RXF 393 renal, 97 µM. For the same molecule, the total growth inhibition concentration (TGI) with SF-295 CNS is 27.3 µM; in the assay with SK-MEL-28 melanoma, more than 100 µM; in the assay on SN12C renal, more than 100 µM; with U251 CNS, more than 100 µM; in the assay with UACC-257 melanoma, 54.5 µM.

Take `ClCCN1CCOC1=Nc1ccc2c(c1)CCCC2`: the concentration for total growth inhibition (TGI) in the assay on 786-0 renal stood at 35.3 µM; in the assay with A498 renal, 23 µM; with A549 NSCLC it was 57.5 µM; with CCRF-CEM leukemia, 35.7 µM; in the assay with COLO 205 colon it was 25 µM; in the assay on DU-145 prostate it was 48.4 µM. Moreover, the TGI in the assay with HL-60(TB) leukemia is 17.1 µM; with HOP-62 NSCLC, 22 µM; in the assay on HS 578T breast, 72 µM; with IGROV1 ovarian it was 24.8 µM; with K-562 leukemia, more than 100 µM; in the assay on OVCAR-4 ovarian, 41.4 µM. For the same molecule, the total growth inhibition concentration (TGI) in the assay on RXF 393 renal was 22.6 µM; with SF-295 CNS, 31.9 µM; with SK-MEL-28 melanoma it was 39.1 µM; in the assay with SN12C renal it was 27 µM; in the assay with U251 CNS it was 28.6 µM; in the assay on UACC-257 melanoma it was 13.2 µM.

With `O=C1/C(=C/c2ccc(Cl)cc2)N=C(c2ccccc2)N1c1nc2ccccc2s1`, the TGI in the assay on 786-0 renal is more than 100 µM; with A498 renal, 97.1 µM; in the assay with CCRF-CEM leukemia, more than 100 µM; with DU-145 prostate, more than 100 µM; with HL-60(TB) leukemia, 18.4 µM; with HOP-62 NSCLC it was more than 100 µM. The TGI in the assay with HS 578T breast is 75.7 µM; with IGROV1 ovarian, more than 100 µM; in the assay with K-562 leukemia, more than 100 µM; in the assay on OVCAR-4 ovarian, more than 100 µM; in the assay with RXF 393 renal it was more than 100 µM; in the assay with SF-295 CNS it was more than 100 µM. Besides, the concentration for total growth inhibition (TGI) in the assay with SK-MEL-28 melanoma, with U251 CNS and in the assay with UACC-257 melanoma was more than 100 µM each time.

Turning to `O=C(O)[C@@H]1CCC(=O)N1C(c1ccc2c(c1)OCO2)c1ccc2c(c1)OCO2`, the TGI with 786-0 renal, in the assay with A498 renal, in the assay with A549 NSCLC, in the assay with BT-549 breast, in the assay on COLO 205 colon and in the assay on DU-145 prostate was more than 100 µM throughout. The total growth inhibition concentration (TGI) in the assay with HL-60(TB) leukemia, in the assay on HOP-62 NSCLC, with HS 578T breast, with IGROV1 ovarian, with K-562 leukemia and in the assay on OVCAR-4 ovarian was more than 100 µM each time. Further, the TGI with SF-295 CNS, with SK-MEL-28 melanoma, in the assay on SN12C renal, in the assay on U251 CNS and in the assay with UACC-257 melanoma was more than 100 µM each time.

Take `C=C1CCCCCCCCCCC12SCCC2CCCCSC` (centres undefined): the total growth inhibition concentration (TGI) with 786-0 renal was 87.4 µM; in the assay with A498 renal, 35.8 µM; in the assay on A549 NSCLC, more than 100 µM; in the assay on COLO 205 colon, 33.6 µM; in the assay on DU-145 prostate it was more than 100 µM; in the assay with HL-60(TB) leukemia, 44.7 µM. The TGI in the assay on HOP-62 NSCLC was 40.9 µM; in the assay with HS 578T breast it was more than 100 µM; in the assay with IGROV1 ovarian it was 49.9 µM; in the assay on K-562 leukemia, 44 µM; in the assay on OVCAR-4 ovarian, more than 100 µM; with RXF 393 renal, 50.4 µM. Besides, the total growth inhibition concentration (TGI) is 38.3 µM in the assay with SF-295 CNS; 57.8 µM with SK-MEL-28 melanoma; 53.9 µM in the assay on SN12C renal; 33.8 µM in the assay with U251 CNS; 52.8 µM in the assay on UACC-257 melanoma.

`C=CCC(CC=O)(C(=O)OCC)C(=O)OCC`: the TGI in the assay on 786-0 renal, in the assay on A498 renal, in the assay with A549 NSCLC, in the assay with CCRF-CEM leukemia, in the assay with COLO 205 colon and in the assay with DU-145 prostate was more than 100 µM each time. Also, the total growth inhibition concentration (TGI) in the assay on HL-60(TB) leukemia, with HOP-62 NSCLC, with HS 578T breast, with IGROV1 ovarian, in the assay with K-562 leukemia and in the assay on OVCAR-4 ovarian was more than 100 µM throughout. Besides, the total growth inhibition concentration (TGI) in the assay with RXF 393 renal, in the assay with SF-295 CNS, with SK-MEL-28 melanoma, in the assay on SN12C renal, with U251 CNS and with UACC-257 melanoma was more than 100 µM throughout.
